Patent US12679843B2, “Pyrrolopyrimidine amines as complement inhibitors” (BioCryst Pharmaceuticals, Inc., priority 2020, dated 2026)
pIC50: −log10 of the molar value.

Target: Factor D (Homo sapiens, UniProt P00746)
Experiment: Factor D esterolytic assay (Z-Lys-SBzl thioester substrate, DTNB, 405 nm)
Format: biochemical
Details: substrate Z-Lys-SBzl 1.29 mM, 100 mM HEPES, 500 mM NaCl, pH 7.5, 10% DMSO, tested a minimum of three times
Description: The IC50 value of a compound (i.e., the concentration of the compound that inhibits 50% of the enzymatic activity) was calculated according to the procedure reported in U.S. Pat. No. 6,653,340 B1, e.g., column 74 (incorporated by reference).
Specifically, the compounds were dissolved in a stock solution of DMSO at 10.0 or 100 mM. A portion of this stock solution was added to assay buffer in a final volume of 50 μL. Controls included buffer alone and enzyme solutions to which DMSO was added. Substrate was added to the reaction wells immediately or after incubation at room temperature. The reaction rates were measured spectrophotometrically by the generation of product at 405 nm for 600 sec. Background absorbance at 690 nm was measured and subtracted from the absorbance at 405 nm for each well.
The reaction rate for enzyme alone was compared to the rate of enzyme in the presence of inhibitor and the percent inhibition was calculated as shown below: Percent Inhibition=[Rate without inhibitor−Rate with inhibitor)/(Rate without inhibitor)]−100 Factor D Esterolytic Assay:
An established esterolytic assay for the measurement of Factor D activity and inhibition of Factor D activity was used (Kam, C. M.; McRae, B. J.; Harper, J. W.; Niemann, M. A.; Volanakis, J. E.; Powers, J. C. Human complement proteins D. C2, and B Active site mapping with peptide thioester substrates. J Biol. Chem. 1987, 262, 3444-3451). For this assay Z-Lys-SBzl, 1.29 mM (Kim, S.; Narayana, S. V. L; Volanakis, J. E. Mutational analysis of the substrate binding site of human complement Factor D. Biochemistry, 1994, 33, 14393-14399) was used as the substrate for Factor D ([…]). Hydrolysis of this compound by Factor D liberated a free sulfhydryl group which is then reacted with 5,5′-dithiobis(2-nitrobenzoic acid) producing an intense yellow color (Habeeb, A. F. S. A. Reaction of protein sulfhydryl groups with Ellman's Reagent. Methods in Enzymol. 1976, 25, 457-464). The assays were performed in 96 well microtiter plates and rates of hydrolysis were monitored at 405 nm on a Biotek Synergy H1 plate reader. Hydrolysis rates were reported as change in mOD/min. The assay was conducted in 100 mM HEPES, 500 mM NaCl, pH 7.5 containing 10% DMSO in a final volume of 50 μL per well.
An IC50, a compound concentration which inhibits 50% of the enzymatic activity, was calculated. Compounds in the examples were tested a minimum of three times.

Chain of Factor D (P00746 26-253): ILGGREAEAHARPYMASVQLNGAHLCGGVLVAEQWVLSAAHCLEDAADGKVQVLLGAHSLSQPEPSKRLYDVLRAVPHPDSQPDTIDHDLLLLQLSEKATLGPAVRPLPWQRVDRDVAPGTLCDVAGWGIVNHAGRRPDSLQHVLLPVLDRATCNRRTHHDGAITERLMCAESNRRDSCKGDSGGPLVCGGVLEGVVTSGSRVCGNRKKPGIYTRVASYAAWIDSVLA

| Structure (SMILES) | pIC50 |
| --- | --- |
| Nc1ncnc2c1c1ccc(F)cc1n2CC(=O)N1[C@@H]2C[C@@H]2C[C@H]1C(=O)Nc1cccc(Br)n1 [Compound 33e, (1R,3S,5R)-2-(2-(4-amino-7-fluoro-9H-pyrimido[4,5-b]indol-9-yl)acetyl)-N-(6-bromopyridin-2-yl)-2-azabicyclo[3.1.0]hexane-3-carboxamide] | > 7.00 |
| Nc1ncnc2c1c1cc(Br)ccc1n2CC(=O)N1[C@@H]2C[C@@H]2C[C@H]1C(=O)Nc1cccc(Br)n1 [Compound 34e, (1R,3S,5R)-2-(2-(4-amino-6-bromo-9H-pyrimido[4,5-b]indol-9-yl)acetyl)-N-(6-bromopyridin-2-yl)-2-azabicyclo[3.1.0]hexane-3-carboxamide] | > 7.00 |
| Nc1ncnc2c1c1cccc(Br)c1n2CC(=O)N1[C@@H]2C[C@@H]2C[C@H]1C(=O)Nc1cccc(Br)n1 [Compound 35f, (1R,3S,5R)-2-(2-(4-amino-8-bromo-9H-pyrimido[4,5-b]indol-9-yl)acetyl)-N-(6-bromopyridin-2-yl)-2-azabicyclo[3.1.0]hexane-3-carboxamide] | > 7.00 |
| COc1ccc2c3c(N)ncnc3n(CC(=O)N3[C@@H]4C[C@@H]4C[C@H]3C(=O)Nc3cccc(Br)n3)c2c1 [Compound 36e, (1R,3S,5R)-2-(2-(4-amino-7-methoxy-9H-pyrimido[4,5-b]indol-9-yl)acetyl)-N-(6-bromopyridin-2-yl)-2-azabicyclo[3.1.0]hexane-3-carboxamide] | > 7.00 |
| COc1ccc2c3c(N)ncnc3n(CC(=O)N3[C@H](C(=O)Nc4cccc(Br)n4)C[C@@]4(C)C[C@@H]34)c2c1 [Compound 37a, (1R,3S,5R)-2-(2-(4-amino-7-methoxy-9H-pyrimido[4,5-b]indol-9-yl)acetyl)-N-(6-bromopyridin-2-yl)-5-methyl-2-azabicyclo[3.1.0]hexane-3-carboxamide] | > 7.00 |
| COc1ccc2c(c1)c1c(N)ncnc1n2CC(=O)N1[C@@H]2C[C@@H]2C[C@H]1C(=O)Nc1cccc(Br)n1 [Compound 38e, (1R,3S,5R)-2-(2-(4-amino-6-methoxy-9H-pyrimido[4,5-b]indol-9-yl)acetyl)-N-(6-bromopyridin-2-yl)-2-azabicyclo[3.1.0]hexane-3-carboxamide] | > 7.00 |
| COC(=O)c1ccc2c3c(N)ncnc3n(CC(=O)N3[C@@H]4C[C@@H]4C[C@H]3C(=O)Nc3cccc(Br)n3)c2c1 [Compound 41f, methyl 4-amino-9-(2-((1R,3S,5R)-3-((6-bromopyridin-2-yl)carbamoyl)-2-azabicyclo[3.1.0]hexan-2-yl)-2-oxoethyl)-9H-pyrimido[4,5-b]indole-7-carboxylate] | > 7.00 |
| COC(=O)c1ccc2c3c(N)ncnc3n(CC(=O)N3[C@H](C(=O)Nc4cccc(Br)n4)C[C@@]4(C)C[C@@H]34)c2c1 [Compound 42a, methyl 4-amino-9-(2-((1R,3S,5R)-3-((6-bromopyridin-2-yl)carbamoyl)-5-methyl-2-azabicyclo[3.1.0]hexan-2-yl)-2-oxoethyl)-9H-pyrimido[4,5-b]indole-7-carboxylate] | > 7.00 |
| CCOC(=O)CCc1ccc2c(c1)c1c(N)ncnc1n2CC(=O)N1[C@@H]2C[C@@H]2C[C@H]1C(=O)Nc1cccc(Br)n1 [Compound 45d, ethyl 3-(4-amino-9-(2-((1R,3S,5R)-3-((6-bromopyridin-2-yl)carbamoyl)-2-azabicyclo[3.1.0]hexan-2-yl)-2-oxoethyl)-9H-pyrimido[4,5-b]indol-6-yl)propanoate] | > 7.00 |
| CCOC(=O)c1cccc2c1c1c(N)ncnc1n2CC(=O)N1[C@@H]2C[C@@H]2C[C@H]1C(=O)Nc1cccc(Br)n1 [Compound 46g, ethyl 4-amino-9-(2-((1R,3S,5R)-3-((6-bromopyridin-2-yl)carbamoyl)-2-azabicyclo[3.1.0]hexan-2-yl)-2-oxoethyl)-9H-pyrimido[4,5-b]indole-5-carboxylate] | 6.00 to 7.00 |
| COC(=O)c1cccc2c3c(N)ncnc3n(CC(=O)N3[C@@H]4C[C@@H]4C[C@H]3C(=O)Nc3cccc(Br)n3)c12 [Compound 47g, methyl 4-amino-9-(2-((1R,3S,5R)-3-((6-bromopyridin-2-yl)carbamoyl)-2-azabicyclo[3.1.0]hexan-2-yl)-2-oxoethyl)-9H-pyrimido[4,5-b]indole-8-carboxylate] | > 7.00 |
| N#Cc1ccc2c(c1)c1c(N)ncnc1n2CC(=O)N1[C@@H]2C[C@@H]2C[C@H]1C(=O)Nc1cccc(Br)n1 [Compound 49c, (1R,3S,5R)-2-(2-(4-amino-6-cyano-9H-pyrimido[4,5-b]indol-9-yl)acetyl)-N-(6-bromopyridin-2-yl)-2-azabicyclo[3.1.0]hexane-3-carboxamide] | > 7.00 |
| Nc1ncnc2c1c1cccc(F)c1n2CC(=O)N1[C@@H]2C[C@@H]2C[C@H]1C(=O)Nc1cccc(Br)n1 [Compound 51g, (1R,3S,5R)-2-(2-(4-amino-8-fluoro-9H-pyrimido[4,5-b]indol-9-yl)acetyl)-N-(6-bromopyridin-2-yl)-2-azabicyclo[3.1.0]hexane-3-carboxamide] | > 7.00 |
| COc1cccc2c3c(N)ncnc3n(CC(=O)N3[C@@H]4C[C@@H]4C[C@H]3C(=O)Nc3cccc(Br)n3)c12 [Compound 54g, (1R,3S,5R)-2-(2-(4-amino-8-methoxy-9H-pyrimido[4,5-b]indol-9-yl)acetyl)-N-(6-bromopyridin-2-yl)-2-azabicyclo[3.1.0]hexane-3-carboxamide] | > 7.00 |

The next lines start with the values.

| pIC50 | Structure (SMILES) |
| --- | --- |
| > 7.00 | COC(=O)c1ccc2c(c1)c1c(N)ncnc1n2CC(=O)N1[C@@H]2C[C@@H]2C[C@H]1C(=O)Nc1cccc(Br)n1 [Compound 39f, methyl 4-amino-9-(2-((1R,3S,5R)-3-((6-bromopyridin-2-yl)carbamoyl)-2-azabicyclo[3.1.0]hexan-2-yl)-2-oxoethyl)-9H-pyrimido[4,5-b]indole-6-carboxylate] |
| > 7.00 | COC(=O)c1ccc2c(c1)c1c(N)ncnc1n2CC(=O)N1[C@H](C(=O)Nc2cccc(Br)n2)C[C@@]2(C)C[C@@H]12 [Compound 40a, methyl 4-amino-9-(2-((1R,3S,5R)-3-((6-bromopyridin-2-yl)carbamoyl)-5-methyl-2-azabicyclo[3.1.0]hexan-2-yl)-2-oxoethyl)-9H-pyrimido[4,5-b]indole-6-carboxylate] |
| > 7.00 | Nc1ncnc2c1c1ccc(C(=O)O)cc1n2CC(=O)N1[C@@H]2C[C@@H]2C[C@H]1C(=O)Nc1cccc(Br)n1 [Compound 43a, 4-amino-9-(2-((1R,3S,5R)-3-((6-bromopyridin-2-yl)carbamoyl)-2-azabicyclo[3.1.0]hexan-2-yl)-2-oxoethyl)-9H-pyrimido[4,5-b]indole-7-carboxylic acid] |
| > 7.00 | Nc1ncnc2c1c1cc(C(=O)O)ccc1n2CC(=O)N1[C@@H]2C[C@@H]2C[C@H]1C(=O)Nc1cccc(Br)n1 [Compound 44a, 4-amino-9-(2-((1R,3S,5R)-3-((6-bromopyridin-2-yl)carbamoyl)-2-azabicyclo[3.1.0]hexan-2-yl)-2-oxoethyl)-9H-pyrimido[4,5-b]indole-6-carboxylic acid] |
| > 7.00 | CC(C)(C)OC(=O)Nc1ccc2c(c1)c1c(N)ncnc1n2CC(=O)N1[C@@H]2C[C@@H]2C[C@H]1C(=O)Nc1cccc(Br)n1 [Compound 48d, tert-butyl (4-amino-9-(2-((1R,3S,5R)-3-((6-bromopyridin-2-yl)carbamoyl)-2-azabicyclo[3.1.0]hexan-2-yl)-2-oxoethyl)-9H-pyrimido[4,5-b]indol-6-yl)carbamate] |
| 6.00 to 7.00 | Nc1ncnc2c1c1c(F)cccc1n2CC(=O)N1[C@@H]2C[C@@H]2C[C@H]1C(=O)Nc1cccc(Br)n1 [Compound 50f, (1R,3S,5R)-2-(2-(4-amino-5-fluoro-9H-pyrimido[4,5-b]indol-9-yl)acetyl)-N-(6-bromopyridin-2-yl)-2-azabicyclo[3.1.0]hexane-3-carboxamide] |
| > 7.00 | Nc1ncnc2c1c1ccc(Br)cc1n2CC(=O)N1[C@@H]2C[C@@H]2C[C@H]1C(=O)Nc1cccc(Br)n1 [Compound 52f, (1R,3S,5R)-2-(2-(4-amino-7-bromo-9H-pyrimido[4,5-b]indol-9-yl)acetyl)-N-(6-bromopyridin-2-yl)-2-azabicyclo[3.1.0]hexane-3-carboxamide] |
| 6.00 to 7.00 | Nc1ncnc2c1c1cc(C(F)(F)F)ccc1n2CC(=O)N1CC2(CC2)C[C@H]1C(=O)Nc1cccc(Br)n1 [Compound 53d, (S)-5-(2-(4-amino-6-(trifluoromethyl)-9H-pyrimido[4,5-b]indol-9-yl)acetyl)-N-(6-bromopyridin-2-yl)-5-azaspiro[2.4]heptane-6-carboxamide] |
